In patent publication US11135231B2, “Methods and compositions for prevention and treatment of Apicomplexan infections” (Tufts Medical Center, Inc., priority 2016, dated 2021):
Like-named read-outs stand apart in the source and are kept apart here.

Experiments:
P. falciparum strains [1] = experiment: 3H hypoxanthine incorporation assay of P. falciparum strains in human red blood cells; type: cell-based, Plasmodium falciparum
Experimental: The potency of the compounds of the invention against multi-drug resistant P. falciparum strains was tested. Parasites were cultured in 96-well plates in human red blood cells at 0.5% initial parasitemia for 72 hours in the presence of dilutions of tartrolon D/E (specifically, D2 as the starting material in FIG. 11A), purified tartrolon E (FIG. 11C), dihydroartemisinin (DHA, as a positive control in FIG. 11B), or DMSO (as a negative control). Parasites proliferation was then determined by ^3H hypoxanthine incorporation.
Specifically, parasitized red blood cells (pRBCs) were grown in 0.5% Albumax I (Thermo Fisher Scientific). Assays were set up in 96-well plates at 0.5% initial parasitemia and 0.5% hematocrit. Parasites were exposed to various concentrations of Tartrolon D or E and dihydroartemisinin (DHA) for 48 hours and then pulsed with 0.5 microcuries of tritium-labeled hypoxanthine Moravek (MT-700) for another 24 hours. At the end of 72 hours, assay plates were processed through an Inotech cell harvester and collected on Inotech glass fiber filters. Filters were transferred to Omniplate-96 cassettes (Perkin Elmer) and dried overnight at room temperature. About […] of Microscint-O scintillation cocktail (Perkin Elmer) was added to each well. Each well was counted for 2 minutes on a Packard Topcount scintillation counter. The uptake of radiolabeled hypoxanthine by compound-treated pRBCs was compared relative to uptake by DMSO solvent-treated controls. […] The starting material used as the active reagent in FIG. 11C was tartrolon E, purified as follows: extract from the bacterial pellet of the Teredinibacter turnerae T7901 was purified by reversed phase HPLC using diode array detection. A C18 column (Phenomenex CHO-7878, 100×10 mm) was employed with an isocratic mobile phase (85% acetontrile in water, 3.5 mL/min) to yield tartrolon E (4.7 mg, retention time 8 min).

P. falciparum strains [2] = tested on: P. falciparum strains; parameters: key: R = Clinically Resistant; S + Sensitive; conditions: cited from earlier work
Theileria equi = experiment: T. equi growth in erythrocytes, hydroethidine flow cytometry; type: cell-based; conditions: Erythrocyte, 72 hours, averaged from three independent experiments, read-out: EC50, proliferation of Theileria equi
Experimental: Theileria equi: The effect of tartrolon D2 on T. equi growth in vitro was quantified using an assay that has been previously described by Hines, S. A. et al. (Parasit Vectors 8, 33 (2015)). Briefly, wells containing an erythrocyte concentration of 9% and a starting percentage parasitized erythrocyte (ppe) of 0.3% were established in 96-well plates. Parasites were cultured in the presence of tartrolon D2 or DMSO for 72 hours with a change of media and compound every 24 hours. After 72 hours, the parasites were stained with hydroethidine and enumerated by flow cytometry (FACSCaliber). Samples were run in triplicate and three independent experiments conducted. The data was analyzed and the EC50 values calculated as described above for T. gondii ME49.

Plasmodium berghei = experiment: Plasmodium berghei-luciferase infection in mice, IVIS imaging; type: in vivo; conditions: 8 mg/kg intraperitoneal once per day for 5 days, imaged seven days after infection
Experimental: Mice were infected with Plasmodium berghei expressing luciferase. 48 hours post infection mice were treated with tartrolon D/E (specifically, D2) initially solubilized in 2% methylcellulose and 0.5% Tween80 by intraperitoneal injection for 5 days, once per day. Control mice were treated with vehicle alone. Seven days after infection, mice were given luciferase substrate (150 mg/kg D-luciferin Potassium salt in PBS (Goldbio)) and imaged in an IVIS Lumina II to quantify level of infection.

[3] = tested on: Plasmodium falciparum 3D7; experiment: P. falciparum SYBR green flow cytometry assay; type: cell-based; conditions: 72 hours, read-out: EC50, proliferation of Plasmodium falciparum 3D7
Experimental: Plasmodium falciparum: Parasites were cultured in 96-well plates at 0.5% initial parasitemia. Parasites were cultured for 72 hours in the presence of dilutions of tartrolon D2, dihydroartemisinin (DHA, a drug for treating malaria as a positive control) or DMSO after which parasites were stained with SYBR green fluorescence and enumerated by flow cytometry. The assay was conducted once and all samples were run in triplicate. Data was analyzed with GraphPad Prism as described for T. gondii.

Toxoplasma gondii ME49 = experiment: Bright-Glo luciferase assay of parasite proliferation in HFF cells; type: cell-based
Experimental: Human foreskin fibroblast (HFF) cells were established in 96-well plates, and then infected with ME49 parasites engineered to express green fluorescent protein and firefly luciferase (2.5 to 5×10^5/well). Eight hours after infection, dilutions of Tartrolon D1 isolated as in Example 3, Tartrolon D2 isolated as in Example 4, or vehicle (DMSO) at equivalent concentrations were added to infected cells and the plates incubated for 24 hours (37° C., 5% CO2). Proliferation of the parasites was then measured using Bright-Glo luciferase assay system (available from Promega). Samples were run in triplicate and three independent biological replicates were conducted. The log 10 [Tartrolon D] versus percent inhibition of parasite proliferation was analyzed using the four parameter variable slope analysis in Graphpad Prism.

Sarcocystis neurona = experiment: S. neurona luciferase proliferation assay in bovine turbinate cells; type: cell-based; conditions: BT cells, 96 hours
Experimental: Sarcocystis neurona: Bovine turbinate cells (BT cells, ATCC CRL-1390, American Type Culture Collection, Manassas, Va.) were seeded into 96-well plates and infected with S. neurona merozoites that had been engineered to express green fluorescent protein and firefly luciferase (2×10^4/well). Dilutions of tartrolon D2 or DMSO were added to the infected cells and the plates incubated for 96 hours (37° C., 5% CO2). After 96 hours, parasite proliferation was quantified and the data analyzed as described with T. gondii ME49. The assay was conducted once and all samples were run in triplicate.

C. parvum [4] = experiment: Neonatal mouse C. parvum infection, quantitative PCR of intestinal parasites; type: in vivo, Cryptosporidium parvum; conditions: neonatal mice, qPCR
Experimental: To confirm the in vivo activity against Cryptosporidium parvum, neonatal mice were infected with C. parvum (5×10^4 oocysts per mouse), and 24 hours after infection, the mice were dosed twice daily for 4 days with either 4 or 40 mg/kg of tartrolon D/E (specifically, D2) in starting concentrations. Day 5 post-infection, the mice were sacrificed, the intestines collected and total DNA extracted. Intestinal parasite numbers were quantified by quantitative PCR (qPCR) of the C. parvum HSP70 gene and extrapolation to a standard curve standard curve of known oocyst numbers (see Shahiduzzaman, et al., Vet Parasitol 167, 43-9 (2010)). At both the high and the low dose of Tartrolon D/E, nearly 100% of the parasites were eliminated from the intestine as measured by quantitative PCR.

Babesia bovis = experiment: SYBR green-based growth suppression assay in bovine red blood cells; type: cell-based; conditions: for EC50: SYBR green fluorescence, read-out: EC50 against B. bovis
Experimental: Purified tartrolon D/E (with starting materials being either D1 or D2) was tested against another apicomplexan pathogen, Babesia bovis, which proliferates in bovine red blood cells. Growth suppression of B. bovis was quantified using a modified SybrGreen-based assay (Molecular Probes, Life Sciences Technology). SYBR green is an asymmetrical cyanine dye that is used as a nucleic acid stain. In this assay, parasite replication in red blood cells is measured directly by the incorporation of SYBR green into parasite DNA. Tartrolon D/E concentrations ranging from 0.001 to 10,000 nM were tested on infected cells and DMSO (vehicle) was run in parallel as a negative control.

C. parvum [5] = experiment: Neonatal mouse model of C. parvum infection, histological scoring; type: in vivo, Cryptosporidium parvum; conditions: neonatal mice, 2 mg/kg/dose b.i.d. for 4 days, histological score
Experimental: To determine if tartrolon D/E would be effective in vivo, the purified compound(s) of the invention was tested in a neonatal mouse model of C. parvum infection (Schaefer D A et al. (2000) Infect Immun 68(5):2608-261). Eight-day old neonatal mice were infected with C. parvum oocysts (50 times the ID50) and treated with purified tartrolon D/E (specifically, D1) or vehicle as a starting material for 4 days at 2 mg/kg/dose (b.i.d). At the end of the study period, mice were sacrificed and histological sections of jejunum, ileum, colon and caecum were examined. Infection in each section was scored by an observer blinded as to the sample identity.

[6] = cell line 3D7 (Netherlands, clone of NF54)
[7] = cell line Goan Isolate (Goa, India)

Structure (SMILES)	Drug resistance phenotype (P. falciparum strains [2]; [6])	Drug resistance phenotype (P. falciparum strains [2]; cell line 7G8 (Brazil))	Drug resistance phenotype (P. falciparum strains [2]; cell line D6 (Sierra Leone))	Drug resistance phenotype (P. falciparum strains [2]; cell line Dd2 (SE Asia))	Drug resistance phenotype (P. falciparum strains [2]; [7])	Drug resistance phenotype (P. falciparum strains [2]; cell line HB3 (Honduras))	Drug resistance phenotype (P. falciparum strains [2]; cell line NF54 (Netherlands))	Drug resistance phenotype (P. falciparum strains [2]; cell line V1/S (Vietnam))	other results
C[C@@H]1CCC2CC(=O)C[C@@H](O)CC/C=C/C=C\CC[C@H](C)OC(=O)[C@@H]3O[B-]45O[C@@H](C(=O)O[C@@H](C)CC/C=C\C=C\CC[C@H](O)CC(=O)CC6CC[C@@H](C)[C@]3(O6)O4)[C@@]1(O2)O5 [Tartrolon E, tartrolon E]									EC50 (P. falciparum strains [1]; strain Dd2, purified tartrolon E as starting material (FIG. 11C), read-out: EC50 against Dd2): ~0.16 nM
OC(c1cc(C(F)(F)F)nc2c(C(F)(F)F)cccc12)C1CCCCN1 (stereo not shown) [Mefloquine]	S	S	S	R	S	S	S	S	Drug resistance phenotype (P. falciparum strains [2]; cell line TM90C2A (Thailand)): R
C[C@@H]1C(=O)C[C@@H](O)CC/C=C/C=C\CC[C@H](C)OC(=O)C(O)[C@]2(O)O[C@@H](CC[C@H]2C)[C@H](C)C(=O)C[C@@H](O)CC/C=C/C=C\CC[C@H](C)OC(=O)C(O)[C@]2(O)O[C@H]1CC[C@H]2C (stereo partly shown) [Tartrolon D2, tartrolon D]									EC50 (Theileria equi): ~0.35 nM; P. berghei infection (luminescence) (Plasmodium berghei): reduced P. berghei infection; EC50 [3]: ~0.105 nM; EC50 (Toxoplasma gondii ME49; read-out: EC50 against T. gondii ME49, added 8 h after infection, 24 hours, 3 independent experiments): 2.7 nM; EC50 (Sarcocystis neurona): ~13.2 nM; parasites eliminated from the intestine (C. parvum [4]; high dose 40 mg/kg twice daily for 4 days from 24 h after infection): ~100%; parasites eliminated from the intestine (C. parvum [4]; low dose 4 mg/kg twice daily for 4 days from 24 h after infection): ~100%; EC50 (Babesia bovis; listed as tartrolon D2/E): 16 nM
COc1ncnc(NS(=O)(=O)c2ccc(N)cc2)c1OC [Sulfodoxine]	R		S	R	R	S	R		
C=C[C@H]1C[N@@]2CC[C@H]1C[C@H]2[C@H](O)c1ccnc2ccc(OC)cc12 [Quinine]	S	R	S	R		S	S	R	
C[C@H]1[C@@H](O)O[C@@H]2O[C@@]3(C)CC[C@H]4[C@H](C)CC[C@@H]1[C@@]24OO3 [Dihydroartemisinin, dihydroartemisinin]									EC50 (P. falciparum strains [1]; Plasmodium falciparum, 3D7, Erythrocyte, parasite line 3D7, read-out: EC50): 0.2 nM; EC50 (P. falciparum strains [1]; Plasmodium falciparum, DD2, Erythrocyte, parasite line Dd2, read-out: EC50): 0.14 nM; EC50 (P. falciparum strains [1]; Plasmodium falciparum, Erythrocyte, parasite line 7G8, read-out: EC50): 0.095 nM; EC50 (P. falciparum strains [1]; Plasmodium falciparum, Erythrocyte, parasite line 2012 Indian Isolate (Goa), read-out: EC50): 0.21 nM; EC50 (P. falciparum strains [1]; Plasmodium falciparum, Erythrocyte, parasite line D6, read-out: EC50): 0.17 nM; EC50 (P. falciparum strains [1]; Plasmodium falciparum, Erythrocyte, parasite line V1S, read-out: EC50): 0.084 nM; EC50 (P. falciparum strains [1]; Plasmodium falciparum, HB3, Erythrocyte, parasite line HB3, read-out: EC50): 0.16 nM; EC50 (P. falciparum strains [1]; Plasmodium falciparum, NF54, Erythrocyte, parasite line NF54, read-out: EC50): 0.15 nM; EC50 (P. falciparum strains [1]; Plasmodium falciparum, TM90C2A, Erythrocyte, parasite line TM90C2A, read-out: EC50): 0.091 nM; EC50 (P. falciparum strains [1]; parasite line 3D7, listed as Dihydroartemisinin (DHA), read-out: EC50): 0.11 nM; EC50 [3]: ~0.02 nM
C[C@@H]1C(=O)C[C@@H](O)CC/C=C/C=C\CC[C@H](C)OC(=O)C(O)[C@]2(O)O[C@@H](CC[C@H]2C)[C@H](C)C(=O)C[C@@H](O)CC/C=C/C=C\CC[C@H](C)OC(=O)C(O)[C@]2(O)O[C@H]1CC[C@H]2C (stereo partly shown) [Tartrolon D1, tartrolon D]									EC50 (Toxoplasma gondii ME49; Toxoplasma gondii, HFF, read-out: EC50 against T. gondii ME49, added 8 h after infection, 24 hours, 3 independent experiments): 3.4 nM; inhibition of infection (C. parvum [5]): about 50%; concentration at which parasites did not incorporate any more fluorescence than uninfected red blood cells (Babesia bovis): more than 20 nM; EC50 (Babesia bovis; Babesia bovis, Erythrocyte): 11.2 nM
CC1(C)N=C(N)N=C(N)N1c1ccc(Cl)cc1 [Cycloguanil]	S	R	S	R	R	S	S	R	Drug resistance phenotype (P. falciparum strains [2]; cell line TM90C2A (Thailand)): R
